Target: recombinant extracellular domain of EGFR (EGFR-ECD) (Homo sapiens, UniProt P00533)
Assay: Microscale thermophoresis (MST), EGFR-ECD binding
Method: Recombinant human protein was labeled with a Monolith NT Protein Labeling Kit RED-NHS (Nanotemper, Munich, Germany) and diluted to 50 nM with HEPES buffer (10 mM HEPES, 150 mM NaCl, 0.05% Tween). […] Samples were incubated at room temperature for 5 minutes. The mixtures were centrifuged at 16,000×g for 5 minutes and loaded into capillaries. Microscale thermophoresis measurements were performed using a Monolith NT.115 (Nanotemper, Munich, Germany).

recombinant extracellular domain of EGFR (EGFR-ECD), sequence (P00533 25-645 limits assumed): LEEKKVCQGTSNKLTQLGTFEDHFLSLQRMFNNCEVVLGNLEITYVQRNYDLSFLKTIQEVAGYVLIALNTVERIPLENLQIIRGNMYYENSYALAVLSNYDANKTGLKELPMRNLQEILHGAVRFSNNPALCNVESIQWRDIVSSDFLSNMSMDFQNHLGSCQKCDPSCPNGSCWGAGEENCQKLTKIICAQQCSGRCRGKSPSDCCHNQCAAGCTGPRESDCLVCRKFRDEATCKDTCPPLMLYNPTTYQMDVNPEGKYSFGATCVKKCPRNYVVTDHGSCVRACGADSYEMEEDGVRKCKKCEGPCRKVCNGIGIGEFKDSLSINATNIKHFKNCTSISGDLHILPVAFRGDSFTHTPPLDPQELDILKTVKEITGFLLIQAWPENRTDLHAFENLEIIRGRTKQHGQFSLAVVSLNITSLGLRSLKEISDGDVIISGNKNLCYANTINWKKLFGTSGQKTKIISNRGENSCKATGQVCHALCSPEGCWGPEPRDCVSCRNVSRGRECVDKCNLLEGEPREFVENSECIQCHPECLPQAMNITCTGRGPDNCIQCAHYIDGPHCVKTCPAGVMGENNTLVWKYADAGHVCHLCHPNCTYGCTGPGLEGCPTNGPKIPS

`CC(C)CCC[C@@H](C)[C@H]1CC[C@H]2[C@@H]3CCC4=CC(=O)CC[C@]4(C)[C@H]3CC[C@]12C` [4-C-3, 4-cholesten-3-one] was tested, and the Kd was 5.6 µM.
